This note sets out measurements from patent publication US11179412B2, “Methods of treating conditions involving elevated inflammatory response” (University of Pittsburgh—Of the Commonwealth System of …, priority 2017, dated 2021).

This assay deals with STING activation (IFNβ release) in iBMDMs. In words: IFNβ release ELISA after STING ligand (or LPS) stimulation, iBMDMs. In kind it is cell-based, mouse. The conditions noted are these: iBMDMs; 3′3′-cGAMP 10 μg/ml, 16 hours; compound 10 μM. The procedure, abridged: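 IFNβ released into the medium was quantified by ELISA (mouse or human kit) after iBMDM stimulation with the canonical STING agonist 3′3′-cGAMP or with LPS.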
For orientation: ELISA stands for enzyme-linked immunosorbent assay.
As to `C=CC(=O)Nc1cccc(Oc2nc(Nc3ccc(N4CCN(C)CC4)cc3OC)ncc2Cl)c1` [WZ4002], the “fold increase in IFN-β release” value came to 1.42 fold.
As to `CCC(=O)Nc1cccc(Oc2nc(Nc3ccc(N4CCN(C)CC4)cc3OC)ncc2Cl)c1` [WZ4003], the “fold increase in IFN-β release” value is 0.12 fold.
On to `Cc1cc(-c2ccc(CC(=O)Nc3ccc(-c4cccnc4)cc3)cc2)ccn1` [Wnt-059 (C59)], for which the “fold increase in IFN-β release” value is 0.13 fold.
The figure for `Oc1nc(-c2ccc(C(F)(F)F)cc2)nc2c1CSCC2` [XAV-939] is 1.00 fold; for `CC(C)OC(=O)C1=CN(C(=O)c2ccc(F)c(F)c2)CC(C)(C)c2c1[nH]c1ccccc21` [XL335] it is 0.26 fold; for `CCOc1cc(N2CCC(O)CC2)ccc1Nc1ncc2c(n1)N(C)c1ccccc1C(=O)N2C` [XMD8-92] it is 2.38 fold.
Take `COCCn1c2c([n+](Cc3cnccn3)c1C)C(=O)c1ccccc1C2=O` [YM155 (Sepantronium Bromide), Sepantronium Bromide]: the “fold increase in IFN-β release” value is given as 0.30 fold.
In the case of `C[C@H](NC(=O)Cc1cc(F)cc(F)c1)C(=O)N[C@@H]1C(=O)N(C)c2ccccc2-c2ccccc21` [YO-01027], the “fold increase in IFN-β release” value came out at 1.74 fold.
For `Cc1cc(C)nc(NS(=O)(=O)c2ccc(NC(=S)NC(=O)COc3ccc(Br)cc3Cl)cc2)n1` [ZCL278], the “fold increase in IFN-β release” value is recorded as 2.52 fold.
As to `COc1cc2ncnc(Nc3ccc(Cl)cc3F)c2cc1OC` [ZM 306416], the “fold increase in IFN-β release” value worked out at 0.14 fold.
Turning to `COc1cc2c(Nc3ccc(NC(=O)c4ccccc4)cc3)ncnc2cc1OCCCN1CCOCC1` [ZM 447439], the “fold increase in IFN-β release” value came out at 0.69 fold.
For the compound `O=c1ncccn1[C@@H]1O[C@H](CO)[C@@H](O)[C@H]1O` [Zebularine], the “fold increase in IFN-β release” value is 1.50 fold.
The figure for `COc1nc(C)cnc1NS(=O)(=O)c1cccnc1-c1ccc(-c2nnco2)cc1` [Zibotentan (ZD4054), Zibotentan] is 1.17 fold; for `O[C@@H](COc1cccc2ncccc12)CN1CCN([C@@H]2c3ccccc3[C@@H]3[C@H](c4ccccc42)C3(F)F)CC1` [Zosuquidar (LY335979) 3HCl, Zosuquidar] it is 4.10 fold; for (−)-MK 801 Maleate it is 4.76 fold.
In the case of (−)-Parthenolide, the “fold increase in IFN-β release” value is reported as 0.16 fold.
In the case of HO-3867, the “fold increase in IFN-β release” value is recorded as 0.52 fold.
Consider HSP990 (NVP-HSP990), for which the “fold increase in IFN-β release” value was 0.26 fold.
On to IM-12, for which the “fold increase in IFN-β release” value worked out at 2.17 fold.
With Ifenprodil Tartrate, the “fold increase in IFN-β release” value is on record as 1.71 fold.
KX2-391: the “fold increase in IFN-β release” value came to 0.77 fold.
As to Maraviroc, the “fold increase in IFN-β release” value is given as 2.50 fold.
The figure for OG-L002 is 1.06 fold.
In the case of PF-04620110, the “fold increase in IFN-β release” value was found to be 3.43 fold.
On to Pifithrin-μ, for which the “fold increase in IFN-β release” value is reported as 0.16 fold.
For S3I-201, the “fold increase in IFN-β release” value worked out at 0.88 fold.
For the compound SN-38, the “fold increase in IFN-β release” value was found to be 1.72 fold.
The same measure for SNS-314 Mesylate: 1.10 fold.
As for Tropicamide, the “fold increase in IFN-β release” value amounted to 2.09 fold.
VU 0357121: the “fold increase in IFN-β release” value turned out to be 1.49 fold.
As for VU 0364439, the “fold increase in IFN-β release” value came to 1.60 fold.
On to VU 0364770, for which the “fold increase in IFN-β release” value turned out to be 2.00 fold.
